# Read-outs that look alike come from different tables or passages of the source.
# What was measured:
# Format in all cases: cell-based
# [1] = biological target: α1β3F293Cγ2L GABAA receptors (Homo sapiens, UniProt P14867+P28472, F318C); details: β3F293C; […] ETO, 5 μM PRO, […] ALX
# [2] = biological target: α1β3E298Cγ2L GABAA receptors (Homo sapiens, UniProt P14867+P28472, E323C); test: GABA EC5 enhancement by anesthetics, voltage clamp in Xenopus oocytes; details: β3E298C; […] ETO, 5 μM PRO, […] ALX
# [3] = biological target: α1β3T262Cγ2L GABAA receptors (Homo sapiens, UniProt P14867+P28472, T287C); test: Substituted cysteine modification-protection; details: pCMBS + maximal GABA, 10 μM ETO, 20 μM PRO
# [4] = biological target: α1β3L297Cγ2L GABAA receptors (Homo sapiens, UniProt P14867+P28472, L322C); test: GABA EC5 enhancement by anesthetics, voltage clamp in Xenopus oocytes; details: β3L297C; […] ETO, 5 μM PRO, […] ALX
# [5] = biological target: α1β3V290Cγ2L GABAA receptors (Homo sapiens, UniProt P14867+P28472, V315C); details: α1β3V290Cγ2L; pCMBS + maximal GABA; 10 μM ETO, 20 μM PRO, 10 μM ALX
# [6] = biological target: T1, α1β3M286Cγ2L GABAA receptors (Homo sapiens, UniProt P14867+P28472, M311C); test: GABA EC5 enhancement by anesthetics, voltage clamp in Xenopus oocytes; details: β3M286C; […] ETO, 5 μM PRO, […] ALX
# [7] = biological target: T1, α1β3M286Cγ2L GABAA receptors; details: β3M286C; pCMBS + maximal GABA; 10 μM ETO, 20 μM PRO, 10 μM ALX
# [8] = biological target: T2, α1β3F289Cγ2L GABAA receptors (Homo sapiens, UniProt P14867+P28472, F314C); details: pCMBS + maximal GABA
# [9] = biological target: T2, α1β3F289Cγ2L GABAA receptors; details: β3F289C; […] ETO, 5 μM PRO, […] ALX
# [10] = 10 μM ETO, 20 μM PRO, 10 μM ALX
# T1 sequence (P14867 28-456): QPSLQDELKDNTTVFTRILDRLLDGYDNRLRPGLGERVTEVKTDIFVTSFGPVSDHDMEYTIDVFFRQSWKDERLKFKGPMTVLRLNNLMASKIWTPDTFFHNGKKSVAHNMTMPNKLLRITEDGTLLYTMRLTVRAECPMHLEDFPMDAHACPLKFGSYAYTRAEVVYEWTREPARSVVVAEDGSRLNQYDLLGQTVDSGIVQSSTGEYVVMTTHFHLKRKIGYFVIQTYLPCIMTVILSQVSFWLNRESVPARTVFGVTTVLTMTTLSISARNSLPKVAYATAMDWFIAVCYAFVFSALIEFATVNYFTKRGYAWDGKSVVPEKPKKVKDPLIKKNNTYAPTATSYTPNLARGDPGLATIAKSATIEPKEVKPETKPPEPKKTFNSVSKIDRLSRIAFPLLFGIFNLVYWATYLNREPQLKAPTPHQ
# T1 sequence (P28472 26-473 M311C): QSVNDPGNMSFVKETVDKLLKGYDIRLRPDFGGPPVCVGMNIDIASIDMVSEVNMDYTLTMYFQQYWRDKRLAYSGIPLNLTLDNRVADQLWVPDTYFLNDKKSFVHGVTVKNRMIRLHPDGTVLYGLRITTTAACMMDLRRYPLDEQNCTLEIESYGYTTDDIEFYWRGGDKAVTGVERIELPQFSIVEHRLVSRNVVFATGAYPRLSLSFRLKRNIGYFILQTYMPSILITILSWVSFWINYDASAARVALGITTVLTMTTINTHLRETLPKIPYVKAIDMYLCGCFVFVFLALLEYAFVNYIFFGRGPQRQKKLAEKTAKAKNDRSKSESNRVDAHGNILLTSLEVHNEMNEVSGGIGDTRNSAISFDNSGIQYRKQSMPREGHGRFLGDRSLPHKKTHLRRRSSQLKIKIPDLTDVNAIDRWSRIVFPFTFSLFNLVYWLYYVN
# T1 sequence (P18507 40-475 partner): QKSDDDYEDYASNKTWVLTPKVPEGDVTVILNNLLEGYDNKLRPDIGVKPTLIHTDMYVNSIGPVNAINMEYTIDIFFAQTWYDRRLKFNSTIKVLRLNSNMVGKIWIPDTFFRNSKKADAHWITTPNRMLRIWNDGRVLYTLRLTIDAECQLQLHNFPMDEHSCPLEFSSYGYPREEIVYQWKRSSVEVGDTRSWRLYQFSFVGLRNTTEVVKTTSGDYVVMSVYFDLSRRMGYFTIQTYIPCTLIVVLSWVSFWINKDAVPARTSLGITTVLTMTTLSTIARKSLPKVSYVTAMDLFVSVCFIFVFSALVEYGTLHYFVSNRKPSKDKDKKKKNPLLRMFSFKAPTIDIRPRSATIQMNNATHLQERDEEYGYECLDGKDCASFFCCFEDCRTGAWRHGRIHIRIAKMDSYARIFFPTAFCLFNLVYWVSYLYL
# T2 sequence (P14867 28-456): as the sequence (P14867 28-456) above
# T2 sequence (P28472 26-473 F314C): as the sequence (P28472 26-473 M311C) above, with C286M, F289C counted along it
# T2 sequence (P18507 40-475 partner): as the sequence (P18507 40-475 partner) above
# Chain of α1β3V290Cγ2L GABAA receptors (P14867 28-456, stated change not applied): as the sequence (P14867 28-456) above
# Chain of α1β3V290Cγ2L GABAA receptors (P28472 26-473 V315C): as the sequence (P28472 26-473 M311C) above, with C286M, V290C counted along it
# Chain of α1β3V290Cγ2L GABAA receptors (P18507 40-475 partner): as the sequence (P18507 40-475 partner) above
# Chain of α1β3T262Cγ2L GABAA receptors (P14867 28-456): as the sequence (P14867 28-456) above
# Chain of α1β3T262Cγ2L GABAA receptors (P28472 26-473 T287C): as the sequence (P28472 26-473 M311C) above, with T262C, C286M counted along it
# Chain of α1β3T262Cγ2L GABAA receptors (P18507 40-475 partner): as the sequence (P18507 40-475 partner) above
# Chain of α1β3F293Cγ2L GABAA receptors (P14867 28-456): as the sequence (P14867 28-456) above
# Chain of α1β3F293Cγ2L GABAA receptors (P28472 26-473 F318C): as the sequence (P28472 26-473 M311C) above, with C286M, F293C counted along it
# Chain of α1β3F293Cγ2L GABAA receptors (P18507 40-475 partner): as the sequence (P18507 40-475 partner) above
# Chain of α1β3E298Cγ2L GABAA receptors (P14867 28-456): as the sequence (P14867 28-456) above
# Chain of α1β3E298Cγ2L GABAA receptors (P28472 26-473 E323C): as the sequence (P28472 26-473 M311C) above, with C286M, E298C counted along it
# Chain of α1β3E298Cγ2L GABAA receptors (P18507 40-475 partner): as the sequence (P18507 40-475 partner) above
# Chain of α1β3L297Cγ2L GABAA receptors (P14867 28-456): as the sequence (P14867 28-456) above
# Chain of α1β3L297Cγ2L GABAA receptors (P28472 26-473 L322C): as the sequence (P28472 26-473 M311C) above, with C286M, L297C counted along it
# Chain of α1β3L297Cγ2L GABAA receptors (P18507 40-475 partner): as the sequence (P18507 40-475 partner) above
Compound,EC5 enhancement compared to wild-type [1],EC5 enhancement compared to wild-type [2],effect on apparent rate of pCMBS modification [3],EC5 enhancement compared to wild-type [4],effect on apparent rate of pCMBS modification [5],EC5 enhancement compared to wild-type [6],effect on apparent rate of pCMBS modification [7],"effect on apparent rate of pCMBS modification [8, 10]",EC5 enhancement compared to wild-type [9],"effect on apparent rate of pCMBS modification ([8]; 50 μM ETO, 100 μM PRO, 50 μM ALX)"
"CCOC(=O)c1cncn1[C@H](C)c1ccccc1 [ETO, R-Etomidate]",increased,increased,unaffected,increased,strongly blocked,reduced,block modification,weakly blocked,reduced,–
"CC(C)c1cccc(C(C)C)c1O [PRO, 2,6-diisopropylphenol]",reduced,–,accelerated,–,strongly blocked,reduced,block modification,unaffected,reduced,neither 100 μM PRO nor 50 μM ALX inhibited modification
